Results as given in article PMC9030254, “Target Hopping from Protein Kinases to PXR: Identification of Small-Molecule Protein Kinase Inhibitors as Selective Modulators of Pregnane X Receptor from TüKIC Library” (Cells, 2022).
Several values for one entry are separate records, joined by “and”; a condition that tells them apart may be missing. Equal entries are not always repeated.

Experiments:
[1] = biological target: T1, PXR interaction with coactivator SRC1 (Homo sapiens, UniProt O75469); experiment: Mammalian two-hybrid coactivator interaction assay; format: cell-based; conditions: for effect on rifampicin-dependent recruitment of SRC1 by PXR: HepG2, 10 µM compound + 10 µM rifampicin; for induction of interaction of PXR with coactivator SRC1: HepG2, 10 µM, alone
T1 construct: VP16-PXR LBD(108–434); expressed in transfected cells; host or cells: HepG2
T1 sequence (O75469 108-434): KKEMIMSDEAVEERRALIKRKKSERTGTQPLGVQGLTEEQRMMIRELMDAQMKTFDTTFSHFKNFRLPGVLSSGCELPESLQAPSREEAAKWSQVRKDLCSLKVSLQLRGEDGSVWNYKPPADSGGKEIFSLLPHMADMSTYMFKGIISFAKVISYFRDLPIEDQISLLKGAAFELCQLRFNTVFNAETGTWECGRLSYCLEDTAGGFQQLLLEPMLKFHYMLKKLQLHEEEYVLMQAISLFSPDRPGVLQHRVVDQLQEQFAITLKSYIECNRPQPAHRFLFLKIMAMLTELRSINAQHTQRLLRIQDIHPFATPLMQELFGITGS
Description: In mammalian two-hybrid corepressor/coactivator interaction assays, per well 0.24 µg pGL4-G5, 0.01 µg pGL4.75[hRluc/CMV], 0.03 µg expression plasmid encoding VP16-AD/PXR LBD fusion, and 0.03 µg expression plasmids encoding GAL4-DBD/SRC1-RID or GAL4-DBD/SMRT-RID fusions, respectively, were used. For the SMRT corepressor interaction assay, additionally 0.015 µg of RXRα expression plasmid was included.

PXR LBD = biological target: T2, PXR LBD (Homo sapiens, UniProt O75469); experiment: Mammalian two-hybrid PXR LBD assembly assay; format: cell-based; conditions: HepG2, 10 µM, 24 h
T2 construct: GAL4-DBD/PXR(132–188); VP16-AD/PXR(189–434); expressed in transfected cells; host or cells: HepG2
T2 sequence (O75469 132-188): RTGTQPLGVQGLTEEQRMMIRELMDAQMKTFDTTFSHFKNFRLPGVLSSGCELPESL
T2 sequence (O75469 189-434): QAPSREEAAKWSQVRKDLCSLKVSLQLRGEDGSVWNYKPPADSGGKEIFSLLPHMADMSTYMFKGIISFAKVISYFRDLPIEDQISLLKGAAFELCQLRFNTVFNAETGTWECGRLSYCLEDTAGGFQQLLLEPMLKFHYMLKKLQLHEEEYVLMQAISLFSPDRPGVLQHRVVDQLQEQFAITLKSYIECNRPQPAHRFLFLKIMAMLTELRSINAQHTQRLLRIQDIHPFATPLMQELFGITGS
Description: For the mammalian two-hybrid PXR ligand-binding domain assembly assay, 0.24 µg pGL4-G5, 0.01 µg pMetLuc2control, and 0.03 µg each of expression plasmids encoding GAL4-DBD/PXR(132–188) and VP16-AD/PXR(189–434) fusion proteins were used per well. Otherwise, batch transfection was performed as above with HepG2 cells.
Figure 5 PXR binding of phenylaminobenzosuberones is indicated by cellular PXR LBD assembly assay and inhibition of LBP-filled PXR mutant (A) Novel compounds induce PXR LBD assembly. […] (B) Effects of novel compounds on LBP-filled PXR mutant. HepG2 cells were transiently transfected with CYP3A4 reporter and expression plasmid encoding PXR(S208W/S247W/C284W) and treated as described above. […] Statistically significant differences are illustrated with asterisks. ** p ˂ 0.01, compared to respective treatments with DMSO analyzed by repeated measures one-way ANOVA with Dunnett’s multiple comparisons test.

ABCB1 = experiment: PXR target gene mRNA expression in LS174T cells (RT-qPCR); conditions: for effect on rifampicin-mediated induction of ABCB1: 10 µM compound + 10 µM rifampicin, 72 h; for expression of ABCB1 mRNA: 10 µM single treatment, 48 h (109) or 72 h (73, 100)
Description: In chemical treatments, phenol red-free DMEM was used, and regular FBS was replaced by dextran-coated charcoal-treated FBS. For gene expression analyses, 0.3 × 10^6 LS174T cells were seeded per well of a 12-well plate. The next day, chemical treatment was initiated for 48–72 h, with daily medium change.
Total RNA was prepared from LS174T and HepaRG cells using the NucleoSpin RNA kit (Macherey-Nagel, Düren, Germany). RNA integrity was analyzed by formaldehyde-agarose gel electrophoresis. First strand cDNA was synthesized as described earlier [37]. Relative quantification analyses were conducted with TaqMan RT-PCR utilizing the BioMark HD system and FLEX Six Gene Expression Integrated Fluidic Circuits (Fluidigm, South San Francisco, CA, USA) as described previously [34]. TaqMan gene expression assays were either the commercially available predesigned assays Hs00184500_m1 (ABCB1) and Hs00604506_m1 (CYP3A4) (Thermo Fischer Scientific) or have been described previously: CYP2B6 [31] and 18S rRNA [39]. Data were analyzed as described previously [37]. Gene expression levels were normalized to respective 18S rRNA levels.

PXR [2] = biological target: T3, PXR (Homo sapiens, UniProt O75469); experiment: PXR-dependent CYP3A4 reporter gene assay, antagonist mode (cotreatment with rifampicin); format: cell-based; parameters: expressed in transfected cells; host or cells: H-P cells (HepG2 stably transfected with PXR); conditions: for IC50: read-out: IC50, inhibition of rifampicin-induced PXR activation
T3 sequence (O75469 1-434): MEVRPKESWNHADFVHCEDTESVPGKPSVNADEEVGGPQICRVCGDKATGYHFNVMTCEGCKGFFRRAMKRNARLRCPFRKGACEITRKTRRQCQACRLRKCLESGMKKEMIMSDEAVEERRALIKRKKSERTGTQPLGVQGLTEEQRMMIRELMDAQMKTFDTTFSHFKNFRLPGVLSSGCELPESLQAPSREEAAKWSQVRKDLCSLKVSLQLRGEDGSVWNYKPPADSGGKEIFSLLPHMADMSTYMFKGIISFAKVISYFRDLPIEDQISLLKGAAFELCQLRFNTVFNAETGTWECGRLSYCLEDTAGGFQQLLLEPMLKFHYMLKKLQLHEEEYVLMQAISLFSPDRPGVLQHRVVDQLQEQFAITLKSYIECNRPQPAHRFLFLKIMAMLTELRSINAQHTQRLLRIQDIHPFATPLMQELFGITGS
Excerpt: (§1) Figure 1 Identification of novel putative PXR ligands from the TüKIC library. (A) Workflow of the in silico screening and structures of the identified candidate ligands. (B) Concentration–response curves of the novel inhibitors for antagonism of PXR activity. (C) Concentration–response curves of the same compounds and 109 for PXR activation. […] Data are expressed as mean ± SD fold induction with respect to the DMSO-treated cells from three independent experiments. IC50 and EC50 values calculated with nonlinear regression using formula with 3 parameters (constraint bottom =1) using GraphPadPrism.
(§2) Supplementary Figure S1. Effects of 56 in silico screened TüKIC compounds (A) alone or (B) in combination […]
(§3) H-P cells were transiently
(§4) Luciferase activities were measured after 24 h treatment. Data is expressed as mean ± SD %. Activation was calculated according to Zhu et al. from three independent experiments with technical triplicates. Fold induction achieved by 10 μM […]
(§5) Green and red dashed lines represent the 100% and 50% activation, respectively.
(§6) (1 picture or pasted object on this page, not shown here)

PXR [3] = biological target: T3, PXR; experiment: PXR-dependent CYP3A4 reporter gene assay, agonist mode; format: cell-based; parameters: expressed in transfected cells; host or cells: H-P cells (HepG2 stably transfected with PXR); conditions: H-P cells; for activation of CYP3A4 reporter on their own, % of rifampicin activity: 10 µM compound alone, 10 µM rifampicin = 100%; for activation of CYP3A4 reporter on their own, % of rifampicin activity / EC50: 24 h; for EC50 / fold induction at 24 h: compound alone; for EC50: read-out: EC50, PXR activation; for fold induction at 24 h: human, vs DMSO, read-out: maximal effect (Emax), fold induction
Excerpt: as §1, §2, §3, §4, §5, §6

SMILES | effect on rifampicin-dependent recruitment of SRC1 by PXR [1] | induction of interaction of PXR with coactivator SRC1 [1] | assembly of the PXR LBD (PXR LBD) | effect on rifampicin-mediated induction of ABCB1 (ABCB1) | expression of ABCB1 mRNA (ABCB1) | IC50 (PXR [2]) [µM] | activation of CYP3A4 reporter on their own, % of rifampicin activity (PXR [3]) | EC50 (PXR [3]) | fold induction at 24 h (PXR [3]) | inhibition of rifampicin-mediated induction of CYP3A4 reporter activity (PXR [2]; H-P cells, 10 µM compound + 10 µM rifampicin, 24 h)
Cc1ccc(NC(=O)Cc2ccccc2)cc1Nc1ccc2c(c1)CCCCC2=O [Compound 73] | abrogated the rifampicin-dependent recruitment of SRC1 by PXR | did not induce any interaction of PXR with coactivator SRC1 | induced the assembly of the PXR LBD | suppressed its rifampicin-mediated induction | not induced | 8.3 | about 10% | 0.41 µM | ~2 | 
O=C(Cc1ccccc1)Nc1ccc(F)c(Nc2ccc3c(c2)CCCCC3=O)c1 [Compound 100] | abrogated the rifampicin-dependent recruitment of SRC1 by PXR | did not induce any interaction of PXR with coactivator SRC1 | induced the assembly of the PXR LBD | suppressed its rifampicin-mediated induction | not induced | 2.8 | about 10% | 0.15 µM | ~2 | 
O=C(Nc1ccc(F)c(Nc2ccc3c(c2)CCCCC3=O)c1)c1cccc(F)c1 [Compound 109] |  | interaction with SRC1 was induced | induced the assembly of the PXR LBD |  | induced to a lesser extent than by rifampicin |  |  | 44 µM and 29.2 µM | 27 | does not inhibit PXR
